Target: T1, FAS (Mus musculus, UniProt P19096)
T1 construct: endogenous in cells; host or cells: 3T3-L1 adipocytes (treated cells, then lysed)
Assay: FAS enzyme activity of treated 3T3-L1 adipocytes
Type: cell-based
Details: 3T3-L1 cells, C75 25 μM, 6 days
Procedure: The influence of AIM on FAS activity of adipocyte or adipose tissue was examined. FAS activity was measured by the method of Kelley (Kelley et al., Biochem. J., 1986, 235:87-90) with slight modification. 3T3-L1 adipocytes, or lysates of adipose tissue of obese mice was mixed with acetyl-CoA and NADPH (0.2 M […] phosphate buffer [pH 7.0] containing 0.4 mM EDTA), and the mixture was placed in a spectrophotometer cuvette and maintained at 30° C. 20 μl of malonyl-CoA solution (0.2 mM) was added to start an enzyme reaction and decrease of OD was measured at a chart speed 2 cm/min. Based on the results, the enzyme activity of FAS was evaluated using the molar extinction coefficient of […] NADPH as 6220.
First, the FAS activity of 3T3-L1 cells treated for 6 days in the presence or absence of rAIM (5 μg/ml), and in the presence of C75 (25 μM) was measured. Moreover, the FAS activity of adipose tissues of AIM^+/+ mice and AIM^−/− mice and the FAS activity of adipose tissue of AIM^−/− mice administered with rAIM or BSA 3 hr before by intraadipose topical injection are shown in FIGS. 28 and 29, respectively.
All mice were fed with HFD for 20 weeks. The samples were dissolved (lysed) and the FAS activity was measured. The data was converted to that based on FAS protein, according to the results of WB performed using the same sample.

T1 sequence (P19096 whole entry): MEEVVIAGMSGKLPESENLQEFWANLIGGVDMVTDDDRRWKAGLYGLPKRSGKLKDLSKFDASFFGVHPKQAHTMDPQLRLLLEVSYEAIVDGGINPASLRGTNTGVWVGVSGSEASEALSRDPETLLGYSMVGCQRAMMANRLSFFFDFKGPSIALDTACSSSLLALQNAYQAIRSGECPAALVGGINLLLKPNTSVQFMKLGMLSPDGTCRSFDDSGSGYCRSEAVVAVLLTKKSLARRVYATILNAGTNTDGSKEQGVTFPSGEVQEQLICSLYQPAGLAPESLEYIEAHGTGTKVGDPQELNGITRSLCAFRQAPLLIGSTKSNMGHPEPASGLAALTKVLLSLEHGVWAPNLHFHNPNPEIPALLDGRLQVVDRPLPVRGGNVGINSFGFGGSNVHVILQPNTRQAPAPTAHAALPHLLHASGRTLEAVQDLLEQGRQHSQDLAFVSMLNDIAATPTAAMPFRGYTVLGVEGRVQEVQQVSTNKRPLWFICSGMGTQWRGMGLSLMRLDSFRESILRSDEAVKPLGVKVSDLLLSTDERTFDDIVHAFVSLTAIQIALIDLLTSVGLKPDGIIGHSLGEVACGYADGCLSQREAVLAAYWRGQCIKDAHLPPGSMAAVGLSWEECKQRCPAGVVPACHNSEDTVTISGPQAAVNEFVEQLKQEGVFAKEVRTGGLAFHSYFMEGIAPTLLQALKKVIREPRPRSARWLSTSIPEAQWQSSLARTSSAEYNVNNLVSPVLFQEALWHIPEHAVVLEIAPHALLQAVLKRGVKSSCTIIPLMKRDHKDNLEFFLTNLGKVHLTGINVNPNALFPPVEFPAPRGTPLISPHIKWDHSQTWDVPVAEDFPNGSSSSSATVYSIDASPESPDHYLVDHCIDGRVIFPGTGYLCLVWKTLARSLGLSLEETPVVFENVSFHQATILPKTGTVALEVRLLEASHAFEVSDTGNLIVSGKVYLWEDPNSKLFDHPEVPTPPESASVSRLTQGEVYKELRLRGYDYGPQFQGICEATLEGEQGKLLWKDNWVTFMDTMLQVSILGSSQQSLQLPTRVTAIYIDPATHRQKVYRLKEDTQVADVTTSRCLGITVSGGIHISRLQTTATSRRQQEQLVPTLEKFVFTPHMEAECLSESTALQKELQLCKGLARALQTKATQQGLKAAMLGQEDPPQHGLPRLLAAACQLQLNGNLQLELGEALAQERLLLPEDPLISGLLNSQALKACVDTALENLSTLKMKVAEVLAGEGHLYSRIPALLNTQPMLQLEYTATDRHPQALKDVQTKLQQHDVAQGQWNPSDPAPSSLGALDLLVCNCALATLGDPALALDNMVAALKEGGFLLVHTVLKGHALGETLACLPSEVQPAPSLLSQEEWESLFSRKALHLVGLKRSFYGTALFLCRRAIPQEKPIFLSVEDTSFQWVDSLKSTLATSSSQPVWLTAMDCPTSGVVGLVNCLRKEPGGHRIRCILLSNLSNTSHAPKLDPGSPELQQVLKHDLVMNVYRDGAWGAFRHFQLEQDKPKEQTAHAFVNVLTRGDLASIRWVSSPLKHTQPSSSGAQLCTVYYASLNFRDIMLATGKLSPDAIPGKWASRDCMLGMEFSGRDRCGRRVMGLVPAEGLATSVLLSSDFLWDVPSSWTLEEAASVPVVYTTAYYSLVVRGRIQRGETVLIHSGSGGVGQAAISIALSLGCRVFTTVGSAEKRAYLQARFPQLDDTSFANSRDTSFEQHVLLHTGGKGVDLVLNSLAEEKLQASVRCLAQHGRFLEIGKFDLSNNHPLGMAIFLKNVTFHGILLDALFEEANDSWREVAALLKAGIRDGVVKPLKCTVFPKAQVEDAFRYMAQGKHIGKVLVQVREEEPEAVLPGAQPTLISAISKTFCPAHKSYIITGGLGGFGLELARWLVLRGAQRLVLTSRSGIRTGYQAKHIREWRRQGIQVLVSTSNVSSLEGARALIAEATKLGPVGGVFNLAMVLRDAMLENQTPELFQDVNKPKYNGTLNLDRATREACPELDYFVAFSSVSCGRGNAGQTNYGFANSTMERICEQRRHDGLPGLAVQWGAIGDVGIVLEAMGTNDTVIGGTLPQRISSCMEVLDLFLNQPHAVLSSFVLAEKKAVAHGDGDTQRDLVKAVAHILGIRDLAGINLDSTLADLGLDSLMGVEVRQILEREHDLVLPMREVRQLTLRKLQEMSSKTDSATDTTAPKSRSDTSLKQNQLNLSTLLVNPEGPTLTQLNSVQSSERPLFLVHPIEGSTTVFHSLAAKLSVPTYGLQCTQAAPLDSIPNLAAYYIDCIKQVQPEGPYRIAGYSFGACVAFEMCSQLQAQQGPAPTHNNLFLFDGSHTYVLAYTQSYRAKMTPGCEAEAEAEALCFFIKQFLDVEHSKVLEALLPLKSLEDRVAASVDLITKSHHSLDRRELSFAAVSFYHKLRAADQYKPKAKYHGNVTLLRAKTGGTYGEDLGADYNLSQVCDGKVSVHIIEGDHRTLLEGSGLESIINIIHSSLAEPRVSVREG

FAS activity, level of suppression compared with rAIM: the same
SMILES: C=C1C(=O)OC(CCCCCCCC)C1C(=O)O (stereo not shown) [C75, reference compound]

From patent US20130115220A1, “METHOD FOR PREVENTION OR TREATMENT OF METABOLIC SYNDROME” (DAINIPPON SUMITOMO PHARMA CO., LTD., priority 2010, published 2013)
